Results: ChEMBL document CHEMBL3576827, “New anti-inflammatory tocopherol-derived metabolites from the Taiwanese soft coral Cladiella hirsuta” (Bioorg Med Chem Lett, 2015)
pIC50: −log10 of the molar value.

Experiments:
Settings in all cases: Neutrophil
[1] = (§1) Antiinflammatory activity in human neutrophils assessed as inhibition of fMLP/CB-induced superoxide anion generation by measuring superoxide dismutase-inhibitable reduction of ferricytochrome c at 10 uM preincubated for 5 mins followed by fMLP/CB-induction measured after 10 mins by spectrophotometric analysis; assay type: functional
[2] = Antiinflammatory activity in human neutrophils assessed as inhibition of fMLP/CB-induced elastase release using MeO-Suc-Ala-Ala-Pro-Val-p-nitroanilide as elastase substrate preincubated for 5 mins followed by fMLP/CB-induction by spectroscopic analysis; assay type: functional, cell-based
[3] = Antiinflammatory activity in human neutrophils assessed as inhibition of fMLP/CB-induced elastase release using MeO-Suc-Ala-Ala-Pro-Val-p-nitroanilide as elastase substrate at 10 uM preincubated for 5 mins followed by fMLP/CB-induction by spectroscopic analysis; assay type: functional
[4] = as §1, with “c” for “c at 10 uM”; assay type: functional, cell-based

Row | Compound | inhibition at 10 µM [1] [%] | pIC50 [2] | inhibition at 10 µM [3] [%] | pIC50 [4] | IC50 [2] [µg/mL] | IC50 [4] [µg/mL]
1 | COC(=O)C(C)CCC[C@]1(C)CC[C@]2(O1)C(=O)C(C)=C(C)[C@@]2(O)C(C)=O (stereo not given in full) | 78.3 | 5.43 | 89.5 | 5.39 |  | 
2 | COC(=O)C(C)CCCC(C)(O)CCC1=C(C)C(=O)C2(C)OC2(C)C1=O (stereo not given) | 8.5 | < 5.00 | 21.2 | < 5.00 |  | 
3 | O=c1cc(N2CCOCC2)oc2c(-c3ccccc3)cccc12 [LY-294002] |  |  |  |  | 1.2 | 0.6
